Laboratory results: patent US11020371B2, “Anti-norovirus composition and utilization thereof” (YAIZU SUISANKAGAKU INDUSTRY CO., LTD., priority 2015, dated 2021)

Tests used:
[1] = tested on: Murine norovirus strain S7; test: Test Example 1: antiviral activity against murine norovirus (virus inactivation, TCID50 on RAW 264.7 cells); type: cell-based; settings: log(TCID50 untreated) - log(TCID50 treated); 60 min reaction; theaflavin purified product and tannic acid 1.5 mg/mL in 25% ethanol-added medium; products A and B stock solution
Text: [Test Method] […] Murine norovirus strain S7 was obtained and used. (2) Cell A RAW 264.7 cell being a cell line derived from a murine macrophage (ATCC (American Type Culture Collection) TIB-71) was obtained and used. […] The theaflavin-containing purified extract (hereinafter referred to as “theaflavin purified product”) obtained in Production Example 2 was used as a test sample. Moreover, as a test sample for comparison, tannic acid having nonspecific protein binding ability and also reported as to effectiveness against a norovirus, and products A and B being the existing anti-virus products were used. […] The theaflavin purified product was dissolved in dimethyl sulfoxide to be 71.7 mg/mL, and the resultant material was used in the test described below. Tannic acid was dissolved in dimethyl sulfoxide to be 169.9 mg/mL, and the resultant material was used in the test described below. […] A RAW 264.7 cell was monolayer cultured in a well of a 96-well plate, and washed twice with PBS (Phosphate Buffered Saline), and 200 μL of cell maintenance medium (2% fetal bovine serum-containing Dulbecco's Modified Eagle Medium (DMEM)) was added, and the resultant material was used in the test described below. (6) Anti-Virus Test For each test sample, a concentration was adjusted as described below, and the resultant material was applied as a test solution. […]

feline calicivirus = test: Test Example 3: anti-virus activity against feline calicivirus No. 2 (concentration, with or without 25% ethanol; TCID50 on CRFK cells); type: cell-based; settings: only 25% ethanol, no addition of theaflavin purified product; 60 min reaction
Method: A cytopathic effect (CPE) was observed and a 50% tissue culture infectious dose (TCID50) being an indicator of a virus infectivity titer was calculated by the Behrens-Karber method. Moreover, a virus test solution untreated with the test sample was prepared in the same procedure, and the cytopathic effect was also observed on a cell to which the virus test solution was inoculated to determine a 50% tissue culture infectious dose (log (TCID50 value)). A reduction value of the virus infectivity titer by the test sample was calculated according to the formula (1) described below.
Anti-virus activity of the test sample against feline calicivirus was examined in the same manner as in Test Example 2 except that “(4) Preparation of sample for anti-virus test” and “(6) Anti-virus test” were conducted as described below.
(4) Preparation of Sample for Anti-Virus Test
A theaflavin purified product was dissolved in dimethyl sulfoxide to be 0.717 mg/mL (low concentration), 7.17 mg/mL (medium concentration) and 71.7 mg/mL (high concentration), and the resultant material was used in the test described below.
Then, 5 μL of a feline calicivirus solution and 45 μL of the test solution were mixed, and reacted for 60 minutes.
To the reaction liquid, 450 μL of serum-free Eagle's MEM medium was added to stop the reaction. […]

Row | SMILES | Reduction value of virus infectivity titer Average [1] | Average reduction value of virus infectivity titer (feline calicivirus)
1 | O=C(OC[C@H]1O[C@@H](OC(=O)c2cc(O)c(O)c(OC(=O)c3cc(O)c(O)c(O)c3)c2)[C@H](OC(=O)c2cc(O)c(O)c(OC(=O)c3cc(O)c(O)c(O)c3)c2)[C@@H](OC(=O)c2cc(O)c(O)c(OC(=O)c3cc(O)c(O)c(O)c3)c2)[C@@H]1OC(=O)c1cc(O)c(O)c(OC(=O)c2cc(O)c(O)c(O)c2)c1)c1cc(O)c(O)c(OC(=O)c2cc(O)c(O)c(O)c2)c1 [Tannic acid] | 0.5 | –
2 | CCO [ethanol] | – | 0.5
